Tests used:
H2 = H2 (Homo sapiens, UniProt P25021); test: PDSP binding assay; conditions: 10 μM, quadruplicate, cloned target
DOR = DOR (Homo sapiens, UniProt P41143); test: PDSP binding assay; conditions: 10 μM, quadruplicate, cloned target
Beta3 = Beta3 (Homo sapiens, UniProt P13945); test: PDSP binding assay; conditions: 10 μM, quadruplicate, cloned target
CYP2D6 = CYP2D6 (Homo sapiens, UniProt P10635); test: in vitro; conditions: microsomes
[1] = system: NMDAR EPSCs in VTA dopamine neurons; test: Electrophysiology: CRF potentiation of NMDAR EPSCs in VTA slices; format: cell-based, mouse; conditions: 30 μM compound, CRF 1 μM, VTA-DA neurons, acute brain slices
Text: Male and female mice (n=44; 6-10 weeks) were anesthetized with Euthasol (Butler-Schein). Brains were rapidly removed and placed in ice-cold NMDG-based artificial Cerebrospinal Fluid (aCSF) cutting solution containing (in mM): 92 NMDG, 20 HEPES, 25 glucose, 30 NaHCO3, 2.5 KCl, 1.2 NaPO4 saturated with 95% O2/5% CO2 with an osmolarity of 305-308 mOsm (Advanced Cell Diagnostics). The brain was cut in ice-cold NMDG solution to obtain horizontal VTA slices, 230 μm thick, using a Leica vibratome (Leica VT1200) and slices were incubated in warm NMDG solution (34° C.) for <5 minutes before being placed in a modified aCSF holding solution (in mM): 92 NaCl, 20 HEPES, 25 glucose, 30 NaHCO3, 2.5 KCl, 1.2 NaPO4 (305-308 mOsm). Slices were incubated at room temperature for at least 1 hour before recording.
Whole-cell patch clamp of the lateral VTA was performed under the guidance of IR-DIC optics on an Olympus BX5iWI microscope. Cells were patched with 1.8-3 MO resistance glass microelectrodes containing the following internal solution (in mM): 117 cesium methanesulfonate, 20 HEPES, 0.4 EGTA, 2.8 NaCl, 5 TEA-CI, 4 Mg-ATP, 0.4 Na-GTP, and 5 QX-314 (280-285 mOsm). Dopamine cells were identified by the following criteria: 1) large multipolar soma, 30-40 μm in diameter, 2) tonic firing of <4 Hz when cell attached, 3) large […] with negative voltage step (identified immediately following break in). […] Series resistance was monitored online. […]
For electrophysiology measures, excitatory post-synaptic currents (EPSCs) were normalized to 7 minute of averaged baseline responses, prior to drug application. […] Results are reported as M±SEM a in bar graphs comparing drug to vehicle and analyzed by a one-way ANOVA and post-hoc comparisons to vehicle were performed using a Bonferroni multiple comparisons correction measures (**p<0.01). […]
NMDAR excitatory postsynaptic currents (EPSCs) were recorded from VTA dopamine (DA) neurons in acute brain slices from male and female mice. […]

M2 = M2 (Homo sapiens, UniProt P08172); test: PDSP binding assay; conditions: 10 μM, quadruplicate, cloned target
5-HT1D = target: T1, 5-HT1D (Homo sapiens, UniProt P28221); test: PDSP binding assay; conditions: 10 μM, quadruplicate, cloned target
T1 construct: NIMH Psychoactive Drug Screening Program (PDSP)
T1 sequence (P28221 whole entry, species assumed): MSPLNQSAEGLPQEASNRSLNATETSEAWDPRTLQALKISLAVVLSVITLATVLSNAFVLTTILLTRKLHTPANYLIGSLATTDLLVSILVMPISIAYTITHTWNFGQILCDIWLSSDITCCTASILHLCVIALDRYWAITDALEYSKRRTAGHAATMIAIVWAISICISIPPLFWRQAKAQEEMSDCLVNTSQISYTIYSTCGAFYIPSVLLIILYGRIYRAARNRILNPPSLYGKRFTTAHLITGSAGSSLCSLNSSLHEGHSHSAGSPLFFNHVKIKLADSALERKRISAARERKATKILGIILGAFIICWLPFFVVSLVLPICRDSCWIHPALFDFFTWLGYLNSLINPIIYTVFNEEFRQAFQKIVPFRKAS

5-HT1B = target: T2, 5-HT1B (Homo sapiens, UniProt P28222); test: PDSP binding assay; conditions: 10 μM, quadruplicate, cloned target
T2 construct: NIMH Psychoactive Drug Screening Program (PDSP)

D2 = target: T3, D2 (Homo sapiens, UniProt P14416); test: PDSP binding assay; conditions: 10 μM, quadruplicate, cloned target
T3 construct: NIMH Psychoactive Drug Screening Program (PDSP)

NET = NET (Homo sapiens, UniProt P23975); test: PDSP binding assay; conditions: 10 μM, quadruplicate, cloned target
CRF1 = CRF1 (Homo sapiens, UniProt P34998); test: CRF1 Ca2+ assay; conditions: presence of EC80 CRF
Chain of CRF1 (P34998 24-415): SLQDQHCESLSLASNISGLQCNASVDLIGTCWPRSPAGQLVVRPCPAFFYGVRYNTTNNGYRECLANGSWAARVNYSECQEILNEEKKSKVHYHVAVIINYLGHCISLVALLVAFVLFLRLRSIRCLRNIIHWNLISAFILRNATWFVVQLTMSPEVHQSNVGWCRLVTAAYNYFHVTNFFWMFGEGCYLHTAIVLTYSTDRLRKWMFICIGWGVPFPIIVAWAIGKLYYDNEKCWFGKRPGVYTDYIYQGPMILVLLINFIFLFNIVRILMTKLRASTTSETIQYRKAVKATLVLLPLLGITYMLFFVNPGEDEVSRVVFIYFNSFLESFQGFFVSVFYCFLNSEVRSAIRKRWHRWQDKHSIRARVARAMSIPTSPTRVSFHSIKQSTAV

5-HT6 = target: T4, 5-HT6 (Homo sapiens, UniProt P50406); test: PDSP binding assay; conditions: 10 μM, quadruplicate, cloned target
T4 construct: NIMH Psychoactive Drug Screening Program (PDSP)

M4 = M4 (Homo sapiens, UniProt P08173); test: PDSP binding assay; conditions: 10 μM, quadruplicate, cloned target
D1 = target: T5, D1 (Homo sapiens, UniProt P21728); test: PDSP binding assay; conditions: 10 μM, quadruplicate, cloned target
T5 construct: NIMH Psychoactive Drug Screening Program (PDSP)
T5 sequence (P21728 whole entry): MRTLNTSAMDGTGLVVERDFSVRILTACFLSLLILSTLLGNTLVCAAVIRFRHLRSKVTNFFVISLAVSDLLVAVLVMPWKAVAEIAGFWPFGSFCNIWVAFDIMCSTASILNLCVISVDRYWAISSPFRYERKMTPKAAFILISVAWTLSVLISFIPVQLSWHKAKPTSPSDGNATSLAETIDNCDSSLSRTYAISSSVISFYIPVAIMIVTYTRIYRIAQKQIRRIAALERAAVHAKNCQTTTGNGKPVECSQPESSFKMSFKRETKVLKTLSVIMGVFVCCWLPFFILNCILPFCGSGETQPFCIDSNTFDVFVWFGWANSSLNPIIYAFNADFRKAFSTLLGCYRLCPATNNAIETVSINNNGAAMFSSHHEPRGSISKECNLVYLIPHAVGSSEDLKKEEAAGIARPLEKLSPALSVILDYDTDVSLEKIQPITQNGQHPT

MOR = MOR (Homo sapiens, UniProt P35372); test: PDSP binding assay; conditions: 10 μM, quadruplicate, cloned target
Chain of MOR (P35372 whole entry): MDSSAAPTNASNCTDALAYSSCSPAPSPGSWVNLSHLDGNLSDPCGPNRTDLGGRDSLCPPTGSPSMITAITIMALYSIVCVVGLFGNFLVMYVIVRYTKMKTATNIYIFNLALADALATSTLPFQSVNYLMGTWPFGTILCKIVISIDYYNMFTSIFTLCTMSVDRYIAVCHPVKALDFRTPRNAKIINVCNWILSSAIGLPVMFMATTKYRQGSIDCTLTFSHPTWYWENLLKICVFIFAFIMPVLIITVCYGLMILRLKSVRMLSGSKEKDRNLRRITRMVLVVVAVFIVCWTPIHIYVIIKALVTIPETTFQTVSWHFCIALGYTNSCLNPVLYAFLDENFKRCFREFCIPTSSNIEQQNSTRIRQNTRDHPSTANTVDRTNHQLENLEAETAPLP

Alpha2A = Alpha2A (Homo sapiens, UniProt P08913); test: PDSP binding assay; conditions: 10 μM, quadruplicate, cloned target
Chain of Alpha2A (P08913 whole entry): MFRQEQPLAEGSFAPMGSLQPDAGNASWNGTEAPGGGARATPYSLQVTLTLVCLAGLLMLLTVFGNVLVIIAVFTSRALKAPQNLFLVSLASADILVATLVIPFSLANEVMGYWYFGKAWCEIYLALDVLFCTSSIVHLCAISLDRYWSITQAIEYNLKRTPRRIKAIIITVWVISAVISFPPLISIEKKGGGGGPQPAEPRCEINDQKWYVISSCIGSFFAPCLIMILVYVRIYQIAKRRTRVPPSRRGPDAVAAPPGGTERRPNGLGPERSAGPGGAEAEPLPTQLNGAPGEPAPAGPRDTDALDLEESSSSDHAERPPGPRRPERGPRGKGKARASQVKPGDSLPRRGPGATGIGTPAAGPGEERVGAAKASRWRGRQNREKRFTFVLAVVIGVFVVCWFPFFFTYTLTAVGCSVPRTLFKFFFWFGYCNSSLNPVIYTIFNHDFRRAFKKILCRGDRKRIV

Alpha1D = Alpha1D (Homo sapiens, UniProt P25100); test: PDSP binding assay; conditions: 10 μM, quadruplicate, cloned target
Chain of Alpha1D (P25100 whole entry): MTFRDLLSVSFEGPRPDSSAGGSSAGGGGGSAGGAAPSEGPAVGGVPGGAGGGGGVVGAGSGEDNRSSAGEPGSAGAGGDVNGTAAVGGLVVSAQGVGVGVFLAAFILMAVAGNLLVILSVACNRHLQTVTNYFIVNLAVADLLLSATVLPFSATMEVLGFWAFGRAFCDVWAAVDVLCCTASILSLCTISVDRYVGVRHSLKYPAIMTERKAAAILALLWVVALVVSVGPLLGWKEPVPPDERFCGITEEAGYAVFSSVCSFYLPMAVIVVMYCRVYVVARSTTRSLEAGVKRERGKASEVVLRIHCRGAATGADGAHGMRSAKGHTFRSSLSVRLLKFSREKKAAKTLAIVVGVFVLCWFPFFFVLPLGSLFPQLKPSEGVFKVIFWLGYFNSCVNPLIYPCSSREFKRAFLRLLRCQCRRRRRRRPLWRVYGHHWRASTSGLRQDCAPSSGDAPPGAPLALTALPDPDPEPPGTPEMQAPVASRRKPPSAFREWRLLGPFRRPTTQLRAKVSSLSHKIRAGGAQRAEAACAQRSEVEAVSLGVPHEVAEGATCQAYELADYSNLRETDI

D4 = D4 (Homo sapiens, UniProt P21917); test: PDSP binding assay; conditions: 10 μM, quadruplicate, cloned target
M5 = M5 (Homo sapiens, UniProt P08912); test: PDSP binding assay; conditions: 10 μM, quadruplicate, cloned target
Chain of M5 (P08912 whole entry): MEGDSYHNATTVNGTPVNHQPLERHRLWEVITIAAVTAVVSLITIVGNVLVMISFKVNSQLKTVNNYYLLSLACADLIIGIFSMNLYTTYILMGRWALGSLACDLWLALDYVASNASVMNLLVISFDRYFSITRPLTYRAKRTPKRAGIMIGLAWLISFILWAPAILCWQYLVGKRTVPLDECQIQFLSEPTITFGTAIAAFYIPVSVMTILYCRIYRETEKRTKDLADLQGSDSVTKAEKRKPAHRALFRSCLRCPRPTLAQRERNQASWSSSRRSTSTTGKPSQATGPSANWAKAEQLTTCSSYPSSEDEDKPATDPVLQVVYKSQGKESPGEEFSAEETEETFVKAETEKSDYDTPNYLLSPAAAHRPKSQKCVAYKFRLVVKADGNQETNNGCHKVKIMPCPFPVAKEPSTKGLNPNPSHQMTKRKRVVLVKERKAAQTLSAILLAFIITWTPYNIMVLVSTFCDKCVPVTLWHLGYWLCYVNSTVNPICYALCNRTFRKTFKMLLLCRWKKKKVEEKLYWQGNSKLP

Alpha2C = Alpha2C (Homo sapiens, UniProt P18825); test: PDSP binding assay; conditions: 10 μM, quadruplicate, cloned target
Alpha1B = Alpha1B (Homo sapiens, UniProt P35368); test: PDSP binding assay; conditions: 10 μM, quadruplicate, cloned target
5-HT1E = target: T6, 5-HT1E (Homo sapiens, UniProt P28566); test: PDSP binding assay; conditions: 10 μM, quadruplicate, cloned target
T6 construct: NIMH Psychoactive Drug Screening Program (PDSP)
T6 sequence (P28566 whole entry, species assumed): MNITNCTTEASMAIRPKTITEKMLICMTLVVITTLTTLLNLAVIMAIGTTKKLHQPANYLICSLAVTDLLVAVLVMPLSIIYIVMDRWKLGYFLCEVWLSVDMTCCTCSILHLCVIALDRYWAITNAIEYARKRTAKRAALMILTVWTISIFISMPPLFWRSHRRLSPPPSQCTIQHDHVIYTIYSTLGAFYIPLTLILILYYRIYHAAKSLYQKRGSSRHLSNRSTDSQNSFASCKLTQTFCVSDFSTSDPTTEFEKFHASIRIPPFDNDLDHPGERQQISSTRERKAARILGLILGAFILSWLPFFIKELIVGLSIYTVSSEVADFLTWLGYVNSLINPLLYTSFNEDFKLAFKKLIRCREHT

5-HT2A = target: T7, 5-HT2A (Homo sapiens, UniProt P28223); test: PDSP binding assay; conditions: 10 μM, quadruplicate, cloned target
T7 construct: NIMH Psychoactive Drug Screening Program (PDSP)

Sigma 2 = test: PDSP binding assay; conditions: 10 μM, quadruplicate, cloned target
H3 = H3 (Homo sapiens, UniProt Q9Y5N1); test: PDSP binding assay; conditions: 10 μM, quadruplicate, cloned target

Chain of DOR (P41143 whole entry): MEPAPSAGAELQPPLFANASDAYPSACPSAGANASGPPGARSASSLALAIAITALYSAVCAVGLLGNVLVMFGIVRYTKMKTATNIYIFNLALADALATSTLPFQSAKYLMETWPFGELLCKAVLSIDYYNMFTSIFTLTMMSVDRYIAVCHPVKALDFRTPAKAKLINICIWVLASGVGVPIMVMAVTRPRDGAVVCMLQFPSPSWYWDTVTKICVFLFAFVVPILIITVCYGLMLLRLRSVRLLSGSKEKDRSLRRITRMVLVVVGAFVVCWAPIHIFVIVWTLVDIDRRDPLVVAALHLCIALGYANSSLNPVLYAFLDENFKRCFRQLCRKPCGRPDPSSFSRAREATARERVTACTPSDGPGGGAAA
Chain of CYP2D6 (P10635 whole entry): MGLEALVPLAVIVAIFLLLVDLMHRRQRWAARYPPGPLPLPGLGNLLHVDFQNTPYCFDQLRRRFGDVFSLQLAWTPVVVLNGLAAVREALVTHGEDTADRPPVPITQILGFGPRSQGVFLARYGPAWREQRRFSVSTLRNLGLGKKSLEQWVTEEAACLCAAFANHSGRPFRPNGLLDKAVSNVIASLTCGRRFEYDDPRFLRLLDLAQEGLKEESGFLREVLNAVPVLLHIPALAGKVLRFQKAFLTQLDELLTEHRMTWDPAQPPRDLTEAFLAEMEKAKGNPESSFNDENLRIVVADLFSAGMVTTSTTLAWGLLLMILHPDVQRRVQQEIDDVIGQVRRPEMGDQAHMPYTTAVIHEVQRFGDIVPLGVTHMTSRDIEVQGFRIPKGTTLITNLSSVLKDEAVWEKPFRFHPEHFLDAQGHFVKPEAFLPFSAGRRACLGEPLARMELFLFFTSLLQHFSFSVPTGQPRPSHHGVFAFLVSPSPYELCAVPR
Chain of Beta3 (P13945 whole entry): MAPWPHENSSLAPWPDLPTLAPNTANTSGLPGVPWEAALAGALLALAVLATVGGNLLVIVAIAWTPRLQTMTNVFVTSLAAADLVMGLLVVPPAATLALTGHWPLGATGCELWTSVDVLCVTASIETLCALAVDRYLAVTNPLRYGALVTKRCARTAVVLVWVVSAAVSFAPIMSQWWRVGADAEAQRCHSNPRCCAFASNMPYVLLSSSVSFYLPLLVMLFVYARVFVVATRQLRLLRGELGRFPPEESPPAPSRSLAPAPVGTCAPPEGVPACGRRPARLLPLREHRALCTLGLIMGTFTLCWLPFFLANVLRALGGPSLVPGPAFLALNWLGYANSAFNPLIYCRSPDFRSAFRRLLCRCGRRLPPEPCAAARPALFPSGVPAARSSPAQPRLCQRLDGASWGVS

SMILES | Activity at H2 (binding assay) (H2) [%] | Activity at DOR (binding assay) (DOR) [%] | Activity at Beta3 (binding assay) (Beta3) [%] | inhibition at 10 µM (CYP2D6) [%] | Block of CRF potentiation of NMDAR EPSCs [1] | Activity at M2 (binding assay) (M2) [%] | Activity at 5-HT1D (binding assay) (5-HT1D) [%] | Activity at 5-HT1B (binding assay) (5-HT1B) [%] | Activity at D2 (binding assay) (D2) [%] | Activity at NET (binding assay) (NET) [%] | CRF1 activity (CRF1) | Activity at 5-HT6 (binding assay) (5-HT6) [%] | Activity at M4 (binding assay) (M4) [%] | Activity at D1 (binding assay) (D1) [%] | Activity at MOR (binding assay) (MOR) [%] | Activity at Alpha2A (binding assay) (Alpha2A) [%] | Activity at Alpha1D (binding assay) (Alpha1D) [%] | Activity at D4 (binding assay) (D4) [%] | Activity at M5 (binding assay) (M5) [%] | Activity at Alpha2C (binding assay) (Alpha2C) [%] | other results
Brc1ccccc1-c1nnc(CSc2nnnn2-c2ccccc2)o1 [MLS-0046818] | 22 | −7 | 27 | -128 | sufficient to block the CRF effect | 10 | −5 | 5 | −13 | 8 | inactive | 35 | −12 | −1 | 12 | 4 | −10 | −42 | −6 | 8 | Activity at Alpha1B (binding assay) (Alpha1B): 19%; Activity at 5-HT1E (binding assay) (5-HT1E): 16%; Activity at 5-HT2A (binding assay) (5-HT2A): 5%; Activity at Sigma 2 (binding assay) (Sigma 2): −7%; Activity at H3 (binding assay) (H3): −15%
CC(C)Cn1c(SCC(=O)N2CCc3ccccc3C2)nc2cc(Cl)ccc2c1=O [MLS-0219419] | 20 | −8 | 29 | -21 | sufficient to block the CRF effect | 23 | −5 | 18 | −5 | 12 | inactive | 2 | −6 | 1 | −4 | 8 | −19 | −60 | −2 | −5 | Activity at Alpha1B (binding assay) (Alpha1B): −1%; Activity at 5-HT1E (binding assay) (5-HT1E): 11%; Activity at 5-HT2A (binding assay) (5-HT2A): −1%; Activity at Sigma 2 (binding assay) (Sigma 2): 9%; Activity at H3 (binding assay) (H3): −9%
